Laboratory results as given in US6969763B1, “Molecular interaction sites of interleukin-2 RNA and methods of modulating the same” (priority 1999, dated 2005).
≈ marks a conversion by molar mass, not a printed value. Where two headings read alike, the source gives them in different places.

Experiments:
[1] = tested on: TAR RNA / tat peptide; test: disruption of TAR RNA interaction with tat peptide; assay type: binding, HIV
[2] = tested on: HIV TAR RNA structure in the 5'-UTR of luciferase mRNA; test: wheat germ lysate translation of luciferase mRNA containing the TAR RNA structure in the 5'-UTR; assay type: biochemical
Text: It is believed that stabilization of mRNA structures near the 5′-cap also could be effected by specific “small” molecules, and that such binding would reduce the translational efficiency of the mRNA. To test this hypothesis, a plasmid was constructed containing the luciferase message behind a 5′-UTR containing a 27-mer RNA construct of the HIV TAR stem-loop bulge whose structure had been determined by NMR. The resulting mRNA could be expressed and capped in a wheat germ lysate translation system supplemented with T7 polymerase following addition of m^7G to the lysate (see, FIG. 38A). Insertion of a 9-base leader before the TAR structure (HIVluc+9) enhanced the translational efficiency, presumably by allowing the pre-initiation complex to form. The helicase activity associated with the pre-initiation complex can transiently melt out the TAR RNA structure, and the message is translated (see, FIG. 38A).

[3] = tested on: luciferase mRNA; test: wheat germ lysate translation of control luciferase mRNA (luc+9); assay type: biochemical; conditions: in words
Text: It is believed that stabilization of mRNA structures near the 5′-cap also could be effected by specific “small” molecules, and that such binding would reduce the translational efficiency of the mRNA. To test this hypothesis, a plasmid was constructed containing the luciferase message behind a 5′-UTR containing a 27-mer RNA construct of the HIV TAR stem-loop bulge whose structure had been determined by NMR.

[4] = tested on: TAR; conditions: in words, assay not described
[5] = tested on: E. coli; test: high throughput screening assay for antibacterial activity (MIC); assay type: cell-based; conditions: Escherichia coli, read-out: minimum inhibitory concentrations (MIC's)
Text: This activity was verified by manual solution synthesis of analytically pure material as described in Example 6 above, which had identical activity.

[6] = target: 16S rRNA A-site 27-mer RNA model; test: ESI-FTICR mass spectrometry (MASS) binding to 16S A-site 27-mer RNA model; parameters: species or system prokaryotic; conditions: for Kd: 16S A site 27mer, read-out: MS-measured dissociation constant (KD); for complex formation with 16S A site RNA: aminoglycosides 500 nM each, in words
Description: (§1) The ESI-FTICR mass spectrum depicted in FIG. 70 was acquired from a […] mixture of untagged 16S and tagged 18S in the presence of an equimolar mixture of five aminoglycosides. It is to be understood that other biomolecules may be used in place of the aminoglycosides. The aminoglycosides have been selected from two classes of 2-deoxystreptamines: 4,5-disubstituted (paromomycin, and lividomycin), and 4,6-disubstituted (tobramycin, sisomicin, and bekanamycin), present at 500 nM each. Complexes corresponding to 1:1 binding of individual aminoglycosides were observed between 16S and all members of the aminoglycoside mixture, with the apparent affinities estimated from the abundances of the respective complexes differing substantially. Signal intensities from the complexes with paromomycin (m/z 1925.572) and lividomycin (m/z 1954.790) are consistent with MS-measured dissociation constants of 110 nM and 28 nM, respectively. The intensities of 16S complexes with tobramycin (m/z 1895.960), bekanamycin (m/z 1899.171), and sisomicin (m/z 1891.972) were reduced, consistent with solution dissociation constants of […]. Wang, et al., Biochemistry, 1997, 36, 768-779. […] The spectrum is calibrated using multiple isotope peaks of the (M−5H^+)^5- and (M−4H^+)^4- charge states of the free RNA as internal mass standards which brackets the m/z range in which complexes are observed. The average mass measurement error obtained for the complexes in FIG. 70 is 2.1 ppm when m/z differences are measured between the most abundant (4 ^13C) isotope peak of 16S and each complex. This post calibration scheme is easily automated which enables rapid, high precision mass measurements of affinity selected ligands against multiple targets in a high throughput mode.
ESI-MS measurements of a solution containing a fixed concentration of RNA at different concentrations of ligand were obtained. By measuring the ratio of bound:unbound RNA at varying ligand concentrations, the Kd was determined by 1/slope of the “titration curve”. The MS derived value of 110 nM is in good agreement with previously reported literature value of 200 nM.
Paromomycin, lividomycin (MW=761.354 Da), sisomicin (MW=447.269 Da), tobramycin (MW=467.2591 Da), and bekanamycin (MW=483.254 Da) were obtained from Sigma (St. Louis, Mo.) and ICN (Costa Mesa, Calif.) and were dissolved to generate 10 mM stock solutions. 2′ methoxy analogs of RNA constructs representing the prokaryotic (16S).rRNA and eukaryotic (18S) rRNA A-site (FIG. 68) were synthesized in house and precipitated twice from 1 M ammonium acetate following deprotection with ammonia (pH 8.5). The mass-tagged constructs contained an 18-atom mass tag (C12H25O9) attached to the 5′-terminus of the RNA oligomer through a phosphodiester linkage.
All mass spectrometry experiments were performed using an Apex 11 70e electrospray ionization Fourier transform ion cyclotron resonance mass spectrometer (Bruker Daltonics, Billerica) employing an actively shielded 7 tesla superconducting magnet. RNA solutions were prepared in 50 mM NH4OAc (pH 7), mixed 1: v:v with isopropanol to aid desolvation, and infused at a rate of […] using a syringe pump. Ions were formed in a modified electrospray source (Analytica, Branford) employing an off axis, grounded electrospray probe positioned ca. 1.5 cm from the metalized terminus of the glass desolvation capillary biased at 5000 V. A counter-current flow of dry oxygen gas heated to 225° C. was employed to assist in the desolvation process. Ions were accumulated in an external ion reservoir comprised of an RF-only hexapole, a skimmer cone, and an auxiliary electrode for 1000 ms prior to transfer into the trapped ion cell for mass analysis. Each spectrum was the result of the coaddition of 16 transients comprised of 256 datapoints acquired over a 90,909 kHz bandwidth resulting in a 700 ms detection interval. […]

[7] = tested on: 18S rRNA A-site 27-mer RNA model; test: ESI-FTICR mass spectrometry binding to mass-tagged 18S A-site 27-mer RNA model; parameters: species or system eukaryotic; conditions: aminoglycosides 500 nM each, in words
Description: as §1, with “The” for “The spectrum is calibrated using multiple isotope peaks of the (M−5H^+)^5- and (M−4H^+)^4- charge states of the free RNA as internal mass standards which brackets the m/z range in which complexes are observed. The”, “This post calibration scheme is easily automated which enables rapid, high precision mass measurements of affinity selected ligands against multiple targets in a high throughput mode.” left out

[8] = target: 27-mer model RNA sequence of the 16S A-site; test: MASS assay with the 27-mer model RNA sequence of the 16S A-site (Table 6); assay type: binding; conditions: 27-mer model RNA of the 16S A-site
Description: (§2) The compounds are screened for binding affinity using MASS or conventional high-throughput functional screens. […] The MASS assay was performed with the 27-mer model RNA sequence of the 16S A-site whose NMR structure has been determined. The transcription/translation assay was based on expression of a luciferase plasmid.
(§3) Paromomycin is an aminoglycoside antibiotic known to bind to the A-site RNA structure. The NMR structure was determined with paromomycin bound at the A-site.

[9] = tested on: translation of a luciferase plasmid; test: transcription/translation assay based on expression of a luciferase plasmid; assay type: biochemical; conditions: inhibition of translation of a luciferase plasmid
Description: as §2, §3

[10] = target: decoding region of the prokaryotic 16S rRNA (the A-site); conditions: 16S A-site, read-out: solution dissociation constant (literature), cited from earlier work

In the case of `CNc1ccc(NCCO)c2c1C(=O)c1ccccc1C2=O` [ACD 00001199], the “concentration disrupting the TAR RNA interaction with tat peptide” value [1] is reported as 1 µM, the “inhibition of translation of luciferase mRNA containing TAR RNA structure” value ([2]; in words) is reported as “dose-dependent inhibition of translation” and the IC50 ([2]; luciferase mRNA containing the TAR RNA structure in the 5'-UTR, read-out: concentration reducing translation by 50%) is reported as 50000 nM. The “inhibition of translation of the luciferase mRNA (control)” value [3] was “some inhibition of translation at very high concentrations” and the “IC5, values” [4] was “low”.
Compound `O=C(NO)[C@@H](Cc1ccc2ccccc2c1)NS(=O)(=O)c1ccc2ccccc2c1` [Compound 5-n-ii, (2R)-3-(2-naphthyl)-2-((2-naphthylsulfonyl)amino)propanehydroxamic acid] has an MIC [5] of 0.7 to 1.5 µM (≈ 0.294 to 0.631 µg/mL).
`O=C(NO)[C@@H](Cc1ccc2ccccc2c1)NS(=O)(=O)c1ccc(Br)cc1` [Compound 5n-vi, (2R)-2-(((4-bromophenyl)sulfonyl)amino)-3-(2-naphthyl)propanehydroxamic acid] showed an MIC [5] of 3 to 6 µM (≈ 1.35 to 2.7 µg/mL).
In the case of `NC[C@@H]1O[C@H](O[C@H]2[C@@H](O)[C@H](O[C@@H]3[C@@H](O)[C@H](N)C[C@H](N)[C@H]3O[C@H]3O[C@H](CO)[C@@H](O)[C@H](O)[C@H]3N)O[C@@H]2CO)[C@H](N)[C@@H](O)[C@@H]1O` [Paromomycin], the Kd [6] is reported as 110 nM, the “complex formation with 16S A site RNA” value [6] is reported as “High affinity complexes” and the “complex formation with 18S A site RNA” value [7] is reported as “complete absence of complexes”. The Kd [8] was 500 nM, the “Activity^1” value [9] was 0.3 µM and the Kd ([10]; listed as paromomycin) was 200 nM. The Kd [10] was roughly 200 nM.
With `NC[C@H]1O[C@H](O[C@H]2[C@H](O)[C@@H](O[C@H]3O[C@H](CO)[C@@H](O)[C@H](N)[C@H]3O)[C@H](N)C[C@@H]2N)[C@H](N)[C@@H](O)[C@@H]1O` [bekanamycin] the “complex formation with 16S A site RNA” value [6] was “Weaker complexes”.
With `NC[C@@H]1O[C@H](O[C@H]2[C@@H](O)[C@H](O[C@@H]3[C@@H](O)[C@H](N)C[C@H](N)[C@H]3O[C@H]3O[C@H](CO)[C@@H](O)C[C@H]3N)O[C@@H]2CO)[C@H](N)[C@@H](O)[C@@H]1O[C@H]1O[C@H](CO)[C@@H](O)[C@H](O)[C@@H]1O` [lividomycin] the “enhancement of binding affinity for 16S relative to paromomycin” value [6] was roughly 4 fold, the Kd [6] was 28 nM and the “complex formation with 16S A site RNA” value [6] was “High affinity complexes”. The “complex formation with 18S A site RNA” value [7] was “complete absence of complexes”.
With `CN[C@@H]1[C@@H](O)[C@@H](O[C@@H]2[C@@H](O)[C@H](O[C@H]3OC(CN)=CC[C@H]3N)[C@@H](N)C[C@H]2N)OC[C@]1(C)O` [sisomicin] the “complex formation with 16S A site RNA” value [6] was “Weaker complexes”.
In the case of `NC[C@H]1O[C@H](O[C@H]2[C@H](O)[C@@H](O[C@H]3O[C@H](CO)[C@@H](O)[C@H](N)[C@H]3O)[C@H](N)C[C@@H]2N)[C@H](N)C[C@@H]1O` [tobramycin], the “complex formation with 16S A site RNA” value [6] is reported as “Weaker complexes”.
